Values after ≈ are worked out from the molar mass of the structure shown.

A word on the solubility: it is how much of the substance goes into solution per volume. Read a high solubility as much dissolved substance.

Data set [1] is described as follows: physchem. The data set is classed as physicochemical. The source says: In fact, according to a preferred embodiment, the at least one surfactant is a blend of surfactants, more preferably a blend of sodium lauryl sulfate and polysorbate 80 (Tween 80). In a particularly preferred embodiment, the pharmaceutically acceptable additives further comprise at least one solubilizer. Preferably the solubilizer is povidone.

A short description of data set [2]: Accelerated stability of capsules, HPLC potency and impurities. In kind it is physicochemical. To be noted: Initial. Here is the method: The accelerated stability of the capsules of Examples 1 and 2 was studied. The capsules were packaged in HDPE bottles and stored at 40° C./75% RH and under ICH option 2 light condition. The samples were assayed by HPLC for potency and impurities and by dissolution apparatus. […] No change in dissolution was also observed under all conditions.

As to `CNC(=O)c1c(-c2ccc(F)cc2)oc2cc(N(CCO)S(C)(=O)=O)c(C3CC3)cc12`, the “solubility in aqueous medium at gastrointestinal pHs” value in data set [1] is on record as “insoluble”. The compound also showed a solubility in data set [1] (Solubility) of 20 µg/mL (≈ 44.8 µM). Further, in data set [2], the “Impurity (%) RRT: 1.06” value is under 0.05%, the “Impurity (%) RRT: 1.45” value turned out to be 0.13%, the “Impurity (%) RRT: 1.79” value turned out to be 0.05% and the “Impurity (%) RRT: 1.84” value was found to be 0.07%. Moreover, the “Strength (%)” value in data set [2] was 99.2%.
